{"source": "paper PMC8365602", "about": "(Journal of Medicinal Chemistry, 2021)", "experiment": "Hepatic metabolism in human liver-on-chip", "format": "in vitro ADME", "settings": "1 μM, 48 h", "experimental": "LCMs, 27a, and 27a metabolites were extracted from PMNL, medium of the liver-on-chip, murine plasma, peritoneal exudate, or homogenized murine tissue as described.[6] In brief, PBS pH 7.4, methanol, chloroform, and saline (final ratio: 14:34:35:17) were successively added together with 13d (9 pmol) as the internal standard. The organic layer was evaporated, and the extracted LCMs were dissolved in methanol.\nLCMs, 27a, and 27a metabolites were separated at a flow rate of 0.8 mL/min and a column temperature of 45 °C, with acetonitrile/H2O (10:90) as mobile phase A and acetonitrile as mobile phase B, both acidified with 0.07% formic acid. The linear gradient from A/B = 50:50 to 0:100 within 4.5 min was followed by isocratic elution with A/B = 0:100 for 1 min. MS parameters were adjusted according to Pein et al.[6] and as detailed in Table S3. Signal intensities were normalized to the internal standard 13d, and concentrations were calculated using external calibration curves as specified in Table S3. […]\nThe medium between the two membranes was renewed, and the vehicle (DMSO), 12a, or 27a were added. […] 12a, 27a, and their metabolites were extracted from the combined fractions and analyzed by UPLC-MS/MS.[6]", "data": [{"smiles": "C/C(=C\\CC/C(C)=C/CC[C@]1(C)CCc2c(C)c(O)c(C)c(C)c2O1)CCC=C(CO)CO", "note": "[Compound 27a, α-amplexichromanol]", "values": [{"measurement": "Hepatic metabolism", "result": "preferentially conjugated with sulfate or oxidized at 12a′ or 13′ to the respective ω-carboxylic acid"}]}]}
